{"source": "ChEMBL document CHEMBL3351435", "about": "“New pyrrole derivatives with potent tubulin polymerization inhibiting activity as anticancer agents including hedgehog-dependent cancer” (J Med Chem, 2014)", "key": {"[1]": {"target": "T1, CYP1A2 (Homo sapiens, UniProt P05177)", "T1 sequence (P05177 whole entry)": "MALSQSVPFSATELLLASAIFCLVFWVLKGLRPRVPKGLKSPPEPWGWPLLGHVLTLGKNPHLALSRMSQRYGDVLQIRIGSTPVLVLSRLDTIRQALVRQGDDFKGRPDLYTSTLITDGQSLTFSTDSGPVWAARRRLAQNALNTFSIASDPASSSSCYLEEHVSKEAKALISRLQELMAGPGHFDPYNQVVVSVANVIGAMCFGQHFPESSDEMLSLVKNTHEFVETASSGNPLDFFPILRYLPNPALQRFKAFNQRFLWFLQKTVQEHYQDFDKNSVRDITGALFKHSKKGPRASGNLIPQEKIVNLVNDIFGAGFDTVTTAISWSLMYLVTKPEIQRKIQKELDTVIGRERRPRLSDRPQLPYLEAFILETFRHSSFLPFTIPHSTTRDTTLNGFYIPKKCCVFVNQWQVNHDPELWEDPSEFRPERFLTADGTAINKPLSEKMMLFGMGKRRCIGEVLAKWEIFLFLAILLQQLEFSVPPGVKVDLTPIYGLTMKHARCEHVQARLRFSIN", "test": "Inhibition of human CYP1A2 using furafylline as substrate at 1 uM", "type": "ADME", "conditions": "probe furafylline"}, "[2]": {"test": "Cell cycle arrest in human PC3 cells assessed as accumulation at G2/M phase at 500 nM after 24 hrs by propidium iodide staining-based flow cytometry", "type": "functional", "conditions": "PC-3"}, "[3]": {"test": "Initial plasma concentration in CD-1 mouse at 5 mg/kg, iv", "type": "ADME, organism-based", "parameters": "dose 5 mg/kg, route intravenous"}, "[4]": {"test_system": "Mus musculus", "test": "Tlast in CD-1 mouse at 5 mg/kg, iv", "type": "ADME, organism-based", "parameters": "dose 5 mg/kg, route intravenous", "conditions": "in vivo"}, "[5]": {"test_system": "RD", "test": "Cell cycle arrest in human RD cells at 500 nM incubated for 24 hrs followed by compound washout measured after 24 hrs", "type": "functional, cell-based"}, "[6]": {"test": "Cmax in CD-1 mouse at 5 mg/kg, iv", "type": "ADME, organism-based", "parameters": "dose 5 mg/kg, route intravenous", "conditions": "in vivo"}, "[7]": {"target": "CYP3A4 (Homo sapiens, UniProt P08684)", "sequence (P08684 whole entry)": "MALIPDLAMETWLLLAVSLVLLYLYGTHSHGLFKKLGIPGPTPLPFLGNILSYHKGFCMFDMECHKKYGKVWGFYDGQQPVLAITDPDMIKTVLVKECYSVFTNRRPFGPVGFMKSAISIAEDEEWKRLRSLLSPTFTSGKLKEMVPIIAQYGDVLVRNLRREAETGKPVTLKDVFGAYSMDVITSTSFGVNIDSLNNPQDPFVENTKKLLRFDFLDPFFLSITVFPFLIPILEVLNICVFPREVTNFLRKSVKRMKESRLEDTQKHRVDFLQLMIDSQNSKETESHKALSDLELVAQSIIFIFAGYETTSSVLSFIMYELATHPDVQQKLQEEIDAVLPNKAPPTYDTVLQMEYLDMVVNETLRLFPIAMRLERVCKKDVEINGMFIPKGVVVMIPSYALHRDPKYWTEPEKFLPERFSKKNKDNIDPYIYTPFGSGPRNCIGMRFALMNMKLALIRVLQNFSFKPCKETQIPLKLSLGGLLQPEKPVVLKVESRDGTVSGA", "test": "Inhibition of human CYP3A4 using ketoconazole as substrate at 1 uM", "type": "ADME", "conditions": "probe ketoconazole"}, "[8]": {"test_system": "K562", "test": "Cell cycle arrest in human K562 cells assessed as mitotic index at 10 times IC50 (reference value: […] +/- […]%)", "type": "functional"}}, "note": "Activity calls are given as the source filed them. No cut-off for these calls is given here.", "data": [{"smiles": "COc1cc(C(=O)c2ccn(-c3cccc(N)c3)c2)cc(OC)c1OC", "values": [{"measurement": "inhibition at 1 µM", "setting": "[1]", "result": 66.8, "unit": "%"}, {"measurement": "Activity", "setting": "[2]", "result": "Active"}, {"measurement": "C0", "setting": "[3]", "result": 4.15, "unit": "µg/mL"}, {"measurement": "Tlast", "setting": "[4]", "result": 480, "unit": "min"}, {"measurement": "Activity", "setting": "[5]", "result": "Active"}, {"measurement": "Cmax", "setting": "[6]", "result": 3.4, "unit": "µg/mL"}, {"measurement": "inhibition at 1 µM", "setting": "[7]", "result": 12.2, "unit": "%"}, {"measurement": "Activity", "setting": "[8]", "result": 60, "unit": "%"}]}]}
